For orientation: IC50 means the point on the concentration scale where inhibition reaches its midpoint.

T1 sequence (O95180 whole entry): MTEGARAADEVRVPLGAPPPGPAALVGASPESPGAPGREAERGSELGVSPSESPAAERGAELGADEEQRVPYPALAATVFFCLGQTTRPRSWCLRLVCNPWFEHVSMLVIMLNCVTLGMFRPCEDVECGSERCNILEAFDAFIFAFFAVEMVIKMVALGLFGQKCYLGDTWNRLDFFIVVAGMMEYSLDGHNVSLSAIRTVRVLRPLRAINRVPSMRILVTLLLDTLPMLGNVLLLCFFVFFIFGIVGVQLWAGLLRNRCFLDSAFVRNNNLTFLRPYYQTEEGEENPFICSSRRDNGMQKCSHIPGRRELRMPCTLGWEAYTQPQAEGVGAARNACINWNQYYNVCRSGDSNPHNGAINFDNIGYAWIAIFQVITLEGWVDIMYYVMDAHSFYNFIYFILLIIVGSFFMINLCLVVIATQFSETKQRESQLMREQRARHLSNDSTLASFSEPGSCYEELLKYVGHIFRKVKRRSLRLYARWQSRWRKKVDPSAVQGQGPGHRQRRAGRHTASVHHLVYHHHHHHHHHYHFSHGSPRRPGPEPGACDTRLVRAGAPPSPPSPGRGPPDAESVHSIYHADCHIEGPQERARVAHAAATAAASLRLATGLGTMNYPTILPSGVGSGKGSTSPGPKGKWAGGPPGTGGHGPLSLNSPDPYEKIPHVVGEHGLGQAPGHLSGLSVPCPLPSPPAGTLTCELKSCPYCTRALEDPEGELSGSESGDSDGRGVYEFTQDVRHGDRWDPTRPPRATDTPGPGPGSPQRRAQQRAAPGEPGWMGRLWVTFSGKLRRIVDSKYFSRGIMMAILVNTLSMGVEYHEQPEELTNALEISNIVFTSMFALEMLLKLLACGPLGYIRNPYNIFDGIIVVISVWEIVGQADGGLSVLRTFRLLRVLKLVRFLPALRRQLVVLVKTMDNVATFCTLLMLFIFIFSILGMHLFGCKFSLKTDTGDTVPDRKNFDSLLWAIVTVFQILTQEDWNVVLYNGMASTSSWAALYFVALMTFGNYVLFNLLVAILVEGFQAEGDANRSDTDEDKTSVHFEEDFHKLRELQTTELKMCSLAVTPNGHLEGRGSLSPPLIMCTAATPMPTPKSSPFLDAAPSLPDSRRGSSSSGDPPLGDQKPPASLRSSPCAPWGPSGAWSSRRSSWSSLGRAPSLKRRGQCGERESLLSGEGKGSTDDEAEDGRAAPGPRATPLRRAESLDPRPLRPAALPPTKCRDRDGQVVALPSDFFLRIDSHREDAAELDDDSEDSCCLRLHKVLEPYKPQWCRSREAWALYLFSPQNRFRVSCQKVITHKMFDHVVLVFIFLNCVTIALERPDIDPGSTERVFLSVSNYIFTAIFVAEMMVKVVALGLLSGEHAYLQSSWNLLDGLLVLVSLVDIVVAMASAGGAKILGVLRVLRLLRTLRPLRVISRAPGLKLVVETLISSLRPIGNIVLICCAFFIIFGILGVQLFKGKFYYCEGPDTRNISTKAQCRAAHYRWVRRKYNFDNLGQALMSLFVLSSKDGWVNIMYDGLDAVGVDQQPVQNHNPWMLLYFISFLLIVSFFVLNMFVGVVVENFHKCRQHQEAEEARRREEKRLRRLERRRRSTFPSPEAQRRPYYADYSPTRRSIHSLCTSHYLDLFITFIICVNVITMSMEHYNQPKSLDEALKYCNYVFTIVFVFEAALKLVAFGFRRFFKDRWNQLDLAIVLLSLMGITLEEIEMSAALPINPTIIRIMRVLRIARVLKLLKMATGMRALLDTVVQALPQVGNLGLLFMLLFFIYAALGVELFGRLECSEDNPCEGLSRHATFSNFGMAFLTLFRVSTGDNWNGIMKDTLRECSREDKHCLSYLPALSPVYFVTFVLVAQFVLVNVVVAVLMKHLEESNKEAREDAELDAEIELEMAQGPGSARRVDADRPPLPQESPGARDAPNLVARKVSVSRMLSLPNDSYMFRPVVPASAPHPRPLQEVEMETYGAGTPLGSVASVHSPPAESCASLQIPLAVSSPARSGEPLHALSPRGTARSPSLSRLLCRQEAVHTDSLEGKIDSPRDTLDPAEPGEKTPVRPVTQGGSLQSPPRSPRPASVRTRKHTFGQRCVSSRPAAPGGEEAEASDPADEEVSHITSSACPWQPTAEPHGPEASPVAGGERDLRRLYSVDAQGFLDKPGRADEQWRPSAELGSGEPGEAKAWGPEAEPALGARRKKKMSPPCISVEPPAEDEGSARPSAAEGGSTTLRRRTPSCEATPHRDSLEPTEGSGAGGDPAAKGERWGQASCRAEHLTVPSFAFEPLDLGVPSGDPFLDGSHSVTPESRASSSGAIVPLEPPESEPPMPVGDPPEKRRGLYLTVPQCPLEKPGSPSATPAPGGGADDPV

This assay has as its target T1, voltage-dependent T-type calcium channel subunit alpha-1G (Cav3.2) (Homo sapiens, UniProt O95180).
T1 construct: expressed in transfected cells; host or cells: HEK293
Description: FLIPR calcium flux assay, HEK293 cells recombinantly expressing Cav3.2. The format is cell-based. To be noted: Cav3.2-channel, Fluo-4-AM, 3 min incubation, stimulation with 10 mM CaCl2. In a few lines: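 Calcium influx was triggered by adding CaCl2 to 10 mM final, 3 min after compounds in tetraethylammonium-based buffer, pH 7.2, reached Fluo-4-AM-loaded recombinant HEK293 cells. The integrated kinetic fluorescence signal per concentration gave concentration-response curves by non-linear sigmoidal regression.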
On the technique in general: A change in cytosolic calcium serves as a functional read-out for many receptors and channels.
Consider `CCc1cc(CC(=O)Nc2ccn(Cc3cc(C#N)c(F)cn3)n2)ccc1OCC(F)(F)F` [Example 413, N-[1-(4-Cyano-5-fluoro-pyridin-2-ylmethyl)-1H-pyrazol-3-yl]-2-[3-ethyl-4-(2,2,2-trifluoro-ethoxy)-phenyl]-acetamide], for which the IC50 is 30 nM. In the case of `Cc1cc(CC(=O)Nc2ccn(Cc3ccc(C#N)cn3)n2)cc(C)c1OCC(F)(F)F` [Example 414, N-[1-(5-Cyano-pyridin-2-ylmethyl)-1H-pyrazol-3-yl]-2-[3,5-dimethyl-4-(2,2,2-trifluoro-ethoxy)-phenyl]-acetamide] it was 6.4 nM; in that of `Cc1cc(CC(=O)Nc2ccn(Cc3ccc(F)c(C#N)n3)n2)cc(C)c1OCC(F)(F)F` [Example 415, N-[1-(6-Cyano-5-fluoro-pyridin-2-ylmethyl)-1H-pyrazol-3-yl]-2-[3,5-dimethyl-4-(2,2,2-trifluoro-ethoxy)-phenyl]-acetamide], 4.9 nM; in that of `Cc1cc(CC(=O)Nc2ccn(Cc3cc(C#N)c(F)cn3)n2)cc(C)c1OCC(F)(F)F` [Example 416, N-[1-(4-Cyano-5-fluoro-pyridin-2-ylmethyl)-1H-pyrazol-3-yl]-2-[3,5-dimethyl-4-(2,2,2-trifluoro-ethoxy)-phenyl]-acetamide], 17 nM. The value for `Cc1cc(CC(=O)Nc2ccn(Cc3ccc(C#N)cn3)n2)cnc1OCC(F)(F)F` [Example 417, N-[1-(5-Cyano-pyridin-2-ylmethyl)-1H-pyrazol-3-yl]-2-[5-methyl-6-(2,2,2-trifluoro-ethoxy)-pyridin-3-yl]-acetamide] was 37 nM; that for `Cc1cc(CC(=O)Nc2ccn(Cc3ccc(F)c(C#N)n3)n2)cnc1OCC(F)(F)F` [Example 418, N-[1-(6-Cyano-5-fluoro-pyridin-2-ylmethyl)-1H-pyrazol-3-yl]-2-[5-methyl-6-(2,2,2-trifluoro-ethoxy)-pyridin-3-yl]-acetamide] was 94 nM; that for `Cc1cc(CC(=O)Nc2ccn(Cc3cc(C#N)c(F)cn3)n2)cnc1OCC(F)(F)F` [Example 419, N-[1-(4-Cyano-5-fluoro-pyridin-2-ylmethyl)-1H-pyrazol-3-yl]-2-[5-methyl-6-(2,2,2-trifluoro-ethoxy)-pyridin-3-yl]-acetamide] was 9430 nM.

Consider `Cc1cc(CC(=O)Nc2ccn(Cc3ccc(F)c(C#N)n3)n2)ccc1OCCC(F)(F)F` [Example 420, N-[1-(6-Cyano-5-fluoro-pyridin-2-ylmethyl)-1H-pyrazol-3-yl]-2-[3-methyl-4-(3,3,3-trifluoro-propoxy)-phenyl]-acetamide], for which the IC50 was determined as 8.7 nM. In the case of `Cc1cc(CC(=O)Nc2ccn(Cc3cc(C#N)c(F)cn3)n2)ccc1OCCC(F)(F)F` [Example 421, N-[1-(4-Cyano-5-fluoro-pyridin-2-ylmethyl)-1H-pyrazol-3-yl]-2-[3-methyl-4-(3,3,3-trifluoro-propoxy)-phenyl]-acetamide] it was 41 nM; in that of “N-[1-(5-Cyano-pyridin-2-ylmethyl)-1H-pyrazol-3-yl]-2-[4-(1-methyl-cyclopropyl)-phenyl]-acetamide [Example 375]”, 9.9 nM.
